Laboratory results from patent publication US11623919B2, “Heterocyclic P2X7 antagonists” (AXXAM S.P.A., priority 2017, dated 2023).

Columns and labels:
Experiment in all cases: Screen Quest Fluo-8 No Wash Calcium Assay (Bz-ATP evoked Ca2+ influx, FLIPR)
Format in all cases: cell-based
P2X7 receptor [1] = target: T1, P2X7 receptor (Homo sapiens, UniProt Q99572); design: hP2X7 (IC50; nM); other: hP2X7; HEK-293 cells stably transfected with P2X7 receptor, Bz-ATP at EC80, Fluo-8 NW; potency; conditions: hP2X7; HEK-293 cells stably transfected with P2X7 receptor, Bz-ATP at EC80, Fluo-8 NW; potency ranges A-D
T1 sequence (Q99572 1-595): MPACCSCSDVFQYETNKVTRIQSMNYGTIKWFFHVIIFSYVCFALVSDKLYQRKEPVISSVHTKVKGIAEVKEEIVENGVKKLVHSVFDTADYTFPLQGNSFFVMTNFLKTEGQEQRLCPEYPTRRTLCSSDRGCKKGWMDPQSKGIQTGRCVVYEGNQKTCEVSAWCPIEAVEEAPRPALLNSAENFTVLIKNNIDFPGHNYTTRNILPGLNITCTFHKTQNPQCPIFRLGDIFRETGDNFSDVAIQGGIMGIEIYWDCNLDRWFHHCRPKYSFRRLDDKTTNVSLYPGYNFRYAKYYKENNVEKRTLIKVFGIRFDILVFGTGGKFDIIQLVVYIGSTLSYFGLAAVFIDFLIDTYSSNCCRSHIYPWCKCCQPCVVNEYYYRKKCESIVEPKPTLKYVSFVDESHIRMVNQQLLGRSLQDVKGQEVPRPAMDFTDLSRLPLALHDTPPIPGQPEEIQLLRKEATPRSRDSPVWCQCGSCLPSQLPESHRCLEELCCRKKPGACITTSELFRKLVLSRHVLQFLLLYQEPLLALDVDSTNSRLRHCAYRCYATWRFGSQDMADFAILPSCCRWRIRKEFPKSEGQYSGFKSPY
Summary of the method: (§1)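 HEK-293 cells stably expressing P2X7 were loaded with Fluo-8 NW for 1 h at RT, then given compound, and 5 min later Bz-ATP at EC80. Fluorescence was read by FLIPR in low divalent cation buffer (0.3 mM Ca2+, 0 mM Mg2+). IC50 came from percent inhibition relative to reference antagonist A438079.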

P2X7 receptor [2] = target: T2, P2X7 receptor (Rattus norvegicus, UniProt Q64663); conditions: rP2X7; HEK-293 cells stably transfected with P2X7 receptor, Bz-ATP at EC80, Fluo-8 NW; potency ranges A-D
T2 construct: rP2X7 (IC50; nM); other: rP2X7; HEK-293 cells stably transfected with P2X7 receptor, Bz-ATP at EC80, Fluo-8 NW; potency
T2 sequence (Q64663 1-595): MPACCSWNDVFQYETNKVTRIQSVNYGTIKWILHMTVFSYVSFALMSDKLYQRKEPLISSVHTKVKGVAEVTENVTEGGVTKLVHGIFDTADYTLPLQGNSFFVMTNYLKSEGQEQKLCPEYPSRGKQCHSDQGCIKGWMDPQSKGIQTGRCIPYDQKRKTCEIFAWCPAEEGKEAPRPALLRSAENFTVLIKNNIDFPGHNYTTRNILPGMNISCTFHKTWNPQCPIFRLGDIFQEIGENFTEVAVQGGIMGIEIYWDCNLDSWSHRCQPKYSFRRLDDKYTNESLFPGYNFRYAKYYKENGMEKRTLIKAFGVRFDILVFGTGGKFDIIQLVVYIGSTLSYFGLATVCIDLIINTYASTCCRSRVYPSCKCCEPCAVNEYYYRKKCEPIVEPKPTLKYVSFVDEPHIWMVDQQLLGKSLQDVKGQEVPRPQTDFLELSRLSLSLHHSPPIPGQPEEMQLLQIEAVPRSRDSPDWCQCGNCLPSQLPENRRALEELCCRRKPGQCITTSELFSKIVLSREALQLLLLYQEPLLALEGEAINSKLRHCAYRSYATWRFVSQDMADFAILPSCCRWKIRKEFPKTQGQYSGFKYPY
Summary of the method: as §1

P2X7 receptor [3] = target: T3, P2X7 receptor (Mus musculus, UniProt Q9Z1M0); conditions: mP2X7; HEK-293 cells stably transfected with P2X7 receptor, Bz-ATP at EC80, Fluo-8 NW; potency ranges A-D
T3 construct: mP2X7 (IC50; nM); other: mP2X7; HEK-293 cells stably transfected with P2X7 receptor, Bz-ATP at EC80, Fluo-8 NW; potency
T3 sequence (Q9Z1M0 1-595): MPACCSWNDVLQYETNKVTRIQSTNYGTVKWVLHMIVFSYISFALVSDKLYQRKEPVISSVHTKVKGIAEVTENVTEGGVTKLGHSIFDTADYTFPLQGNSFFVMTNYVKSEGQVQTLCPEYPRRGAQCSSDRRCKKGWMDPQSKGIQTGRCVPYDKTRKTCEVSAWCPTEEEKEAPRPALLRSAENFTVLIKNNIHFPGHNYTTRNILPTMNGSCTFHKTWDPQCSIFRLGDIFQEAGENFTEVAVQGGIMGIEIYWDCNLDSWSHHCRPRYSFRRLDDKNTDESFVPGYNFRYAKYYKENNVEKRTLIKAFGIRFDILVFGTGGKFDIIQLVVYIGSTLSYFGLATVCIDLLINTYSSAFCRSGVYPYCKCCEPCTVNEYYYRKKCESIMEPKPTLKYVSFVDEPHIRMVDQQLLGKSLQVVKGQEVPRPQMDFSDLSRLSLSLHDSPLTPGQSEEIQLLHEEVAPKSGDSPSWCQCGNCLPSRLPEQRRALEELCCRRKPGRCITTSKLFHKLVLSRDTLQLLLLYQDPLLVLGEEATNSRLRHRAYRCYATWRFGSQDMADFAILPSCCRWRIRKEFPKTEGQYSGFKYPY
Summary of the method: as §1

IC50 (P2X7 receptor [1]) [nM] | IC50 (P2X7 receptor [2]) [nM] | IC50 (P2X7 receptor [3]) [nM] | SMILES
1000 to 10000 | 1000 to 10000 | > 10000 | COc1cccc(Cc2noc(=O)n2Cc2ccc(F)cc2)c1 [Example 109, 4-[(4-fluorophenyl)methyl]-3-[(3-methoxyphenyl)methyl]-4,5-dihydro-1,2,4-oxadiazol-5-one]
> 10000 | 1000 to 10000 | > 10000 | O=c1onc(Cc2ccccn2)n1CC1CCCCC1 [Example 110, 4-(cyclohexylmethyl)-3-(pyridin-2-ylmethyl)-4,5-dihydro-1,2,4-oxadiazol-5-one]
> 10000 | 1000 to 10000 | 200 to 1000 | O=c1onc(Cc2ccncc2)n1CC1CCCCC1 [Example 111, 4-(cyclohexylmethyl)-3-(pyridin-4-ylmethyl)-4,5-dihydro-1,2,4-oxadiazol-5-one]
1000 to 10000 | 200 to 1000 | 1000 to 10000 | COc1ccc(Cc2noc(=O)n2CC2CCCCC2)cc1 [Example 112, 4-(cyclohexylmethyl)-3-[(4-methoxyphenyl)methyl]-4,5-dihydro-1,2,4-oxadiazol-5-one]
1000 to 10000 | 1000 to 10000 | 1000 to 10000 | O=c1onc(Cc2cccc(C(F)(F)F)c2Cl)n1CC1CCCCC1 [Example 113, 3-{[2-chloro-3-(trifluoromethyl)phenyl]methyl}-4-(cyclohexylmethyl)-4,5-dihydro-1,2,4-oxadiazol-5-one]
> 10000 | > 10000 | > 10000 | CC(C)(c1c(F)cccc1Cl)c1noc(=O)n1CC1CCCCC1 [Example 121, 3-[2-(2-chloro-6-fluorophenyl)propan-2-yl]-4-(cyclohexylmethyl)-4,5-dihydro-1,2,4-oxadiazol-5-one]
> 10000 | 1000 to 10000 | > 10000 | CC(c1c(F)cccc1Cl)c1noc(=O)n1CC1CCCCC1 (stereo not drawn) [Example 122, 3-[1-(2-chloro-6-fluorophenyl)ethyl]-4-(cyclohexylmethyl)-4,5-dihydro-1,2,4-oxadiazol-5-one]
1000 to 10000 | 1000 to 10000 | 1000 to 10000 | O=c1onc(Cc2cccnc2)n1CC1CCCCC1 [Example 123, 4-(cyclohexylmethyl)-3-(pyridin-3-ylmethyl)-4,5-dihydro-1,2,4-oxadiazol-5-one]
1000 to 10000 | 200 to 1000 | 1000 to 10000 | O=c1onc(Cc2cccc(F)c2)n1CC1CCCCC1 [Example 125, 4-(cyclohexylmethyl)-3-[(3-fluorophenyl)methyl]-4,5-dihydro-1,2,4-oxadiazol-5-one]
1000 to 10000 | 200 to 1000 | 1000 to 10000 | O=c1onc(Cc2ccccc2)n1CC1CCCCC1 [Example 126, 3-benzyl-4-(cyclohexylmethyl)-4,5-dihydro-1,2,4-oxadiazol-5-one]
> 10000 | > 10000 | > 10000 | COc1cccc(Cc2noc(=O)n2CC2CCCCC2)c1 [Example 127, 4-(cyclohexylmethyl)-3-[(3-methoxyphenyl)methyl]-4,5-dihydro-1,2,4-oxadiazol-5-one]
> 10000 | 1000 to 10000 | 1000 to 10000 | O=c1onc(CC2CCCCC2)n1CC1CCCCC1 [Example 129, bis(cyclohexylmethyl)-4,5-dihydro-1,2,4-oxadiazol-5-one]
1000 to 10000 | 1000 to 10000 | 1000 to 10000 | O=c1onc(CC2CCCCC2)n1Cc1ccc(F)cc1 [Example 131, 3-(cyclohexylmethyl)-4-[(4-fluorophenyl)methyl]-4,5-dihydro-1,2,4-oxadiazol-5-one]
1000 to 10000 | 1000 to 10000 | > 10000 | O=c1onc(CC2CCC(F)(F)CC2)n1CC1CCCCC1 [Example 133, 4-(cyclohexylmethyl)-3-[(4,4-difluorocyclohexyl)methyl]-4,5-dihydro-1,2,4-oxadiazol-5-one]
200 to 1000 | > 10000 | > 10000 | O=c1onc(C(O)c2cccc(C(F)(F)F)c2Cl)n1Cc1c(F)cccc1Cl (stereo not drawn) [Example 135, 3-{[2-chloro-3-(trifluoromethyl)phenyl](hydroxy)methyl}-4-[(2-chloro-6-fluorophenyl)methyl]-4,5-dihydro-1,2,4-oxadiazol-5-one]
1000 to 10000 | > 10000 | > 10000 | O=c1onc(C(O)c2cccc(C(F)(F)F)c2Cl)n1Cc1ccccc1 (stereo not drawn) [Example 136, 4-benzyl-3-{[2-chloro-3-(trifluoromethyl)phenyl](hydroxy)methyl}-4,5-dihydro-1,2,4-oxadiazol-5-one]
1000 to 10000 | 1000 to 10000 | 1000 to 10000 | O=c1onc(C(O)c2ccc(F)cc2F)n1Cc1c(F)cccc1Cl (stereo not drawn) [Example 137, 4-[(2-chloro-6-fluorophenyl)methyl]-3-[(2,4-dffluorophenyl)(hydroxy)methyl]-4,5-dihydro-1,2,4-oxadiazol-5-one]
1000 to 10000 | 1000 to 10000 | 1000 to 10000 | O=c1onc(C(O)c2cccc(Cl)c2Cl)n1Cc1c(F)cccc1Cl (stereo not drawn) [Example 138, 4-[(2-chloro-6-fluorophenyl)methyl]-3-[(2,3-dichlorophenyl)(hydroxy)methyl]-4,5-dihydro-1,2,4-oxadiazol-5-one]
200 to 1000 | 200 to 1000 | 1000 to 10000 | O=c1snc(Cc2c(F)cccc2Cl)n1Cc1ccc(F)cc1 [Example 139, 3-[(2-chloro-6-fluorophenyl)methyl]-4-[(4-fluorophenyl)methyl]-4,5-dihydro-1,2,4-thiadiazol-5-one]
200 to 1000 | 200 to 1000 | 1000 to 10000 | O=c1onc(Cc2c(F)cccc2Cl)n1CCN1CCCCC1 [Example 143, 3-(2-chloro-6-fluorobenzyl)-4-[2-(piperidin-1-yl)ethyl]-1,2,4-oxadiazol-5(4H)-one]
200 to 1000 | 200 to 1000 | 1000 to 10000 | O=c1onc(CCc2c(F)cccc2Cl)n1Cc1c(F)cccc1Cl [Example 144, 4-(2-chloro-6-fluorobenzyl)-3-[2-(2-chloro-6-fluorophenyl)ethyl]-1,2,4-oxadiazol-5(4H)-one]
200 to 1000 | 200 to 1000 | 200 to 1000 | O=c1onc(CCc2c(F)cccc2Cl)n1Cc1ccc(F)cc1 [Example 145, 3-[2-(2-chloro-6-fluorophenyl)ethyl]-4-(4-fluorobenzyl)-1,2,4-oxadiazol-5(4H)-one]
